Literature values in paper PMC2593936 (Bioorganic & medicinal chemistry, 2008).
Marks after values point to notes of the source that are not given here.

Target: T1, human A3AR (Homo sapiens, UniProt P0DMS8)
T1 sequence (P0DMS8 1-318): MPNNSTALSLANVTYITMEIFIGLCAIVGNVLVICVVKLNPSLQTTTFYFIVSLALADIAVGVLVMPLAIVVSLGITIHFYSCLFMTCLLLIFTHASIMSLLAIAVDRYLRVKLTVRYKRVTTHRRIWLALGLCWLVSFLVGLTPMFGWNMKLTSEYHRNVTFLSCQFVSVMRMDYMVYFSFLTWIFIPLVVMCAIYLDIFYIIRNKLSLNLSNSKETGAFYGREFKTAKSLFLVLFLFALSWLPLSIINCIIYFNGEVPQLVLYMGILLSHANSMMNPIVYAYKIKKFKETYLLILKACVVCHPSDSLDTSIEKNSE
Conditions: relative to full agonist NECA at 10 μM

- %Efficacy A3: 100 ^c %
Compound: CNC(=O)[C@@]12C[C@@H]1[C@@H](n1cnc3c(NCc4cccc(I)c4)nc(Cl)nc31)[C@H](O)[C@@H]2O [Compound 7]
